Assay results: patent publication US8329719B2, “Neuroprotective agents for the prevention and treatment of neurodegenerative diseases” (Lixte Biotechnology, Inc., priority 2008, dated 2012)
Entries after “also recorded” stand apart in the source; their conditions may differ. Each block holds one compound with its values, some of them ahead of it.

Assays:
protein phosphatase 2A = protein phosphatase 2A (Homo sapiens, UniProt P67775); experiment: Inhibition of protein phosphatase 2A; format: biochemical
Sequence of protein phosphatase 2A (P67775 whole entry): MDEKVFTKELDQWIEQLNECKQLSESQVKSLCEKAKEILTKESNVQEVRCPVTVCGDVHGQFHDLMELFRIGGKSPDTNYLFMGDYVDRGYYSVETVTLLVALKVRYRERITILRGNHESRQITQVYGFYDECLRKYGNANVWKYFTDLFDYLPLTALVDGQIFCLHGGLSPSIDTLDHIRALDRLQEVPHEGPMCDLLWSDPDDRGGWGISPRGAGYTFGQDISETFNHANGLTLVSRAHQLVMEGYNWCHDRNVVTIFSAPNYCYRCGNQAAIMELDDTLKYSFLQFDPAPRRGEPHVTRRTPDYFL

[1] = test system: primary embryonal rat cortical neuronal cells; experiment: Survival of primary cortical neurons after environmental stress (growth factor deficient medium 1 hour); format: cell-based; conditions: 500 nM, cell counts at 3, 6, 13 and 23 days in culture, n=4
Experimental: FIG. 6. Photomicrographs of primary embryonal rat cortical neuronal cells at 23 days subjected to environmental stress by exposure to growth factor deficient medium for 1 hour on day 3 of culture.
FIG. 7. Average number of primary embryonal rat cortical neuronal cells at 3, 6, 13, and 23 days in culture (n=4). • All cultures were exposed to growth factor deficient medium for 1 hour on day 3 followed by of culture in complete medium containing no supplement (control), drug vehicle (0.05% DMSO), compound 102 (500 nM), or compound 201 (500 nM).
Neurons were chronically or acutely treated with each compound and exposed to environmental stress (replacement of the culture medium with a saline PBS based solution for one hour followed by removal of the PBS medium and restoration of standard neuronal culture medium) and then observed for survival (FIG. 6).

[2] = test system: NMDA type response to glutamate in primary rat cortical neurons; experiment: Calcium response of cultured neurons to acute glutamate exposure; format: cell-based; conditions: for calcium response to 200 uM glutamate versus DMSO control: 500 nM compound, 24 h prior to glutamate, single study; for average % increase in response to glutamate exposure: average of 4 separate experiments (FIG. 19)
Text: To assess the effects of compound 102 and compound 201, independently, on neuronal function, the ability of the neurons in a culture dish to respond to exposure to glutamate was studied. In vitro, neurons respond to glutamate with the activation of several receptors associated with different transducing mechanisms. The assortment of glutamate sensitive receptors in a given neuronal population depends on maturation and differentiation. After seven days in culture, there is an assortment of glutamate receptors, including the AMPA/Kainate and NMDA receptors. AMPA/Kainate receptors are in general maximally expressed in the first few days in vitro followed by a gradual decline, while NMDA receptor expression increases over time, reaching a maximum after 7 days in vitro. AMPA/Kainate responses to exposure to glutamate as measured by calcium flux are characterized by fast desensitization (i.e. very little measurable calcium increase), while NMDA responses are characterized by an elevation of calcium concentration that persists as long as glutamate is applied. In the absence of test drug, there was variability in glutamate responsiveness dependent on NMDA receptor expression. A typical response of neurons in culture to glutamate characteristic of the NMDA receptors consists of a rapid increase and a high plateau phase of calcium (FIGS. 8-10). […] This modulation is compatible with a positive neurotrophic effect of compound 201.

[3] = test system: primary rat cortical neurons; experiment: Neurite extension after Calcein staining; format: cell-based; conditions: 250 and 500 nM
Experimental: Neurite extension was evaluated after Calcein staining using commercially available software.

HDAC = HDAC inhibition; format: biochemical
[4] = test system: acetylated histone 3 and histone 4; experiment: Acetylation of Histone 3 and Histone 4 in normal mouse brain (western blot); format: in vivo; conditions: for entry into the brain: mouse, given intraperitoneally, shown by histone acetylation; for acetylation of histone 3 and histone 4 in brain: normal mice, 0.03 mg/20 gram mouse, 4 hours of exposure, compared to control tissue
Experimental: FIG. 5: Induction of acetylation of Histone 3 and Histone 4 in normal mouse brain by Compound 100 and Compound 102. • Normal mice were treated with Compound 100 and Compound 102, 0.03 mg/20 gram mouse. After 4 hours of exposure, treated and control animals (vehicle alone) animals were sacrificed and western blots for acetylated histone 3 and histone 4 were made.
Normal mice were treated with Compound 100 or Compound 102 at a dose of 0.03 mg/20 gram mouse, or with vehicle. After 4 hours of exposure, treated and control animals were sacrificed and western blots for acetylated histone 3 and histone 4 were made.

Akt = Akt phosphorylation in the cell lines tested growing as xenografts in SCID mice; format: in vivo; conditions: given intraperitoneally
Text: The compounds increase the phosphorylation of several regulatory proteins including Akt. At low doses that are non-toxic to mice, these compounds slightly stimulate cell proliferation and increases phosphorylation of Akt in human cancer cell lines tested including SH-SY5Y.

[5] = test system: p-Akt / total Akt in medulloblastoma cells, DAOY; experiment: Induction of phosphorylated Akt in DAOY cells in culture (western blot); format: cell-based, human; conditions: after 4 hours
Experimental: FIG. 1: Induction of phosphorylated Akt by Compound 100 in DAOY cells in culture. • The medulloblastoma cells, DAOY, in culture were exposed to Compound 100, Compound 205 or vehicle alone. After 4 hours western blots were made for p-Akt, total Akt, and beta actin.
Medulloblastoma cells, DAOY, were grown in culture and exposed to Compound 100, […] or vehicle alone. After 4 hours western blots were made for p-Akt, total Akt and beta actin.

[6] = test system: p-Akt / total Akt in human medulloblastoma DAOY xenografts; experiment: Induction of phosphorylated Akt in DAOY cells growing as xenografts in SCID mice (western blot); format: in vivo; conditions: 0.03 mg/20 gram mouse, after 4 hours and 24 hours
Experimental: FIG. 2: Induction of phosphorylated Akt by Compound 100 in DAOY cells growing as xenografts in SCID mice. • SCID mice with human medulloblastoma cells, DAOY, implanted subcutaneously were treated with 0.03 mg/20 gram mouse with Compound 100 or vehicle alone. After 4 hours and 24 hours western blots were made for p-Akt, total Akt, and beta actin. Control cells (C) at both time points (only 24 hour point shown) had only trace amounts of p-Akt and substantial amounts of total Akt and beta actin.
Human medulloblastoma DAOY cells were implanted subcutaneously in SCID mice. Mice were then treated with 0.03 mg/20 gram mouse with Compound 100 or vehicle alone. After 4 hours and 24 hours, western blots were made for phosphorylated Akt (p-Akt), total Akt, and beta actin. Control cells at both time points had only trace amount of p-Akt and substantial amounts of total Akt and beta actin.

[7] = test system: p-Akt / total Akt in human glioblastoma cells, U87; experiment: Induction of phosphorylated Akt in U87 cells in culture (western blot); format: cell-based; conditions: after 4 hours
Experimental: FIG. 3: Induction of phosphorylated Akt by Compound 100 in U87 cells in culture. • The human glioblastoma cells, U87, were exposed to compound 100 or vehicle alone. After 4 hours western blots were made for p-Akt, total Akt, and beta actin.
Human glioblastoma cells, U87, were grown in culture and exposed to Compound 100 or vehicle alone. After 4 hours, western blots were made for p-Akt, total Akt, and beta actin.

[8] = test system: p-Akt / total Akt in human glioblastoma U87 xenografts; experiment: Induction of phosphorylated Akt in U87 cells growing as xenografts in SCID mice (western blot); format: in vivo; conditions: 0.03 mg/20 gram mouse, after 4 hours
Experimental: FIG. 4: Induction of phosphorylated Akt by Compound 100 in U87 cells growing as xenografts in SCID mice. • SCID mice with human glioblastoma cells, U87, implanted subcutaneously were treated with 0.03 mg/20 gram mouse with Compound 100 or vehicle alone. After 4 hours, western blots were made for p-Akt, total Akt, and beta actin.
Human glioblastoma U87 cells were implanted subcutaneously in SCID mice. Mice were then treated with 0.03 mg/20 gram mouse with Compound 100 or vehicle alone. After 4 hours, western blots were made for p-Akt, total Akt, and beta actin.

Compound: CN1CCN(C(=O)C2C(C(=O)S)[C@H]3CC[C@@H]2O3)CC1 (stereo partly shown) [Compound 108]
inhibition of protein phosphatase 2A (protein phosphatase 2A): inhibit protein phosphatase 2A

Compound: O=C(CCCCCNC(=O)c1ccccc1S)Nc1ccccc1 [Compound 201]
neuronal cell number / protection of cell integrity after stress [1]: marked neurotrophic effects as evidenced by maintenance for up to 21 days neuronal cell numbers; also recorded: statistically significant (p<=0.01) protection of cell integrity
calcium response to 200 uM glutamate versus DMSO control [2]: statistically significant increase in the NMDA type response to glutamate; also recorded: significantly enhanced the response to glutamate
average % increase in response to glutamate exposure [2]: significantly enhanced the response to glutamate
process length [3]: increased process length
total neurite outgrowth [3]: increased total neurite outgrowth
HDAC inhibition (HDAC): class I and II HDAC inhibitor

inhibition of protein phosphatase 2A (protein phosphatase 2A): inhibit protein phosphatase 2A
Compound: CN(C)CCNC(=O)C1C(C(=O)O)[C@H]2CC[C@@H]1O2 (stereo partly shown) [Compound 106]

Compound: COC(=O)C1C(C(=O)N2CCN(C)CC2)[C@@H]2CC[C@H]1O2 (stereo partly shown) [Compound 107]
inhibition of protein phosphatase 2A (protein phosphatase 2A): inhibit protein phosphatase 2A

Compound: O=C(O)C1C(C(=O)N2CCOCC2)[C@@H]2CC[C@H]1O2 (stereo partly shown) [Compound 111]
inhibition of protein phosphatase 2A (protein phosphatase 2A): inhibit protein phosphatase 2A

Compound: CC(C)(C)OC(=O)N1CCN(C(=O)C2C(C(=O)O)[C@H]3CC[C@@H]2O3)CC1 (stereo partly shown) [Compound 102]
entry into the brain [4]: properties that enhance their entry into the brain
acetylation of histone 3 and histone 4 in brain [4]: increased acetylation of the histones
neuronal cell number / protection of cell integrity after stress [1]: little effect on cell number
calcium response to 200 uM glutamate versus DMSO control [2]: statistically significant increase in the NMDA type response to glutamate; also recorded: significantly enhanced the response to glutamate
average % increase in response to glutamate exposure [2]: smaller but statistically significant effect; also recorded: less effective but still had a significant effect
process length [3]: increased process length
total neurite outgrowth [3]: increased total neurite outgrowth
inhibition of protein phosphatase 2A (protein phosphatase 2A): inhibit protein phosphatase 2A; also recorded: protein phosphatase 2A inhibitor
Akt phosphorylation in xenografts (Akt): increased Akt phosphorylation

Compound: CCN1CCN(C(=O)C2C(C(=O)O)[C@H]3CC[C@@H]2O3)CC1 (stereo partly shown) [Compound 105]
inhibition of protein phosphatase 2A (protein phosphatase 2A): inhibit protein phosphatase 2A

Compound: CN1CCN(C(=O)C2C(C(=O)O)[C@H]3CC[C@@H]2O3)CC1 (stereo partly shown) [Compound 100]
p-Akt (western blot) [5]: induction of p-Akt
total Akt relative to beta actin (western blot) [5]: increase in total Akt relative to beta actin
p-Akt (western blot) [6]: induction of p-Akt
total Akt relative to beta actin (western blot) [6]: increase in total Akt relative to beta actin
p-Akt (western blot) [7]: induction of p-Akt
total Akt relative to beta actin (western blot) [7]: increase in total Akt relative to beta actin
p-Akt (western blot) [8]: induction of p-Akt
total Akt relative to beta actin (western blot) [8]: increase in total Akt relative to beta actin
entry into the brain [4]: properties that enhance their entry into the brain
acetylation of histone 3 and histone 4 in brain [4]: increased acetylation of the histones
inhibition of protein phosphatase 2A (protein phosphatase 2A): inhibit protein phosphatase 2A
Akt phosphorylation in xenografts (Akt): increased Akt phosphorylation

inhibition of protein phosphatase 2A (protein phosphatase 2A): inhibit protein phosphatase 2A
Compound: COc1ccc(CCN2CCC(NC(=O)C3C(C(=O)O)[C@H]4CC[C@@H]3O4)CC2)cc1 (stereo partly shown) [Compound 104]

inhibition of protein phosphatase 2A (protein phosphatase 2A): inhibit protein phosphatase 2A
Compound: O=C(O)C1C(C(=O)N2CCN(Cc3ccccc3)CC2)[C@@H]2CC[C@H]1O2 (stereo partly shown) [Compound 103]

inhibition of protein phosphatase 2A (protein phosphatase 2A): no anti-PP2A activity
Compound: O=C(CCCCCNC(=O)c1ccccc1S)Nc1cccnc1 [Compound 205]
p-Akt (western blot) [5]: little effect; also recorded: no effect
HDAC inhibition (HDAC): investigational histone deacetylase inhibitor
